Measured values reported in PubChem BioAssay (NCI).
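1) Cells in 96-well plates. 2) Compound, 48 h, 5 concentrations. 3) Linear interpolation between surrounding doses. 4) Unreached endpoint = highest concentration. GI50 = concentration required for 50% inhibition of growth. TGI marks complete inhibition of growth.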 Where a SMILES comes first, the peptide text is derived from it. The star is where a group is joined. Boc = CC(C)(C)OC(=O)*; nBu = CCCC*

Experiments:
Test in all cases: NCI tumour cell line growth inhibition, 48 h
[1] = tested on: HL-60(TB) leukemia
[2] = tested on: M14 melanoma
[3] = tested on: PC-3 prostate
[4] = tested on: DMS 114 small cell lung
[5] = tested on: LXFL 529 NSCLC
[6] = tested on: M19-MEL melanoma
[7] = tested on: SNB-78 CNS
[8] = tested on: XF 498 CNS
[9] = tested on: DLD-1 colon
[10] = tested on: DMS 273 small cell lung
[11] = tested on: HOP-18 NSCLC
[12] = tested on: KM20L2 colon
[13] = tested on: P388 leukemia
[14] = tested on: P388/ADR leukemia
[15] = tested on: SN12K1 renal
[16] = tested on: RXF-631 renal

SMILES	TGI [1]	TGI [2]	TGI [3]	also measured
Oc1ccccc1C=Nc1ccc(-c2nc3ccccc3s2)cc1	91.2 µM	> 100 µM	56.8 µM	
CC1(C)OC[C@@H]([C@@]2(COC(c3ccccc3)(c3ccccc3)c3ccccc3)CC=CC(=O)O2)O1	81.2 µM	> 100 µM	> 100 µM	
CCCCCCCCCCCCCCCc1nc(=S)[nH][nH]1	> 100 µM	> 100 µM		TGI [4]: > 100 µM; TGI [5]: > 100 µM; TGI [6]: > 100 µM; TGI [7]: > 100 µM; TGI [8]: > 100 µM
O=C(Nc1ccccc1)Oc1ccc(C(=S)Nc2ccc(Br)cc2)cc1	30.3 µM		89.8 µM	
CC1=NN(c2nc(N)nc(/C(C#N)=C\c3ccc(-c4ccc([N+](=O)[O-])cc4)o3)n2)C(C)(C)C1	94.7 µM	> 100 µM	> 100 µM	
COC(=O)/C=C\C(C#N)(C#N)N=Cc1ccc(OC)cc1	5.62 µM	8.77 µM	19.6 µM	
Cc1cc(-c2nc3c(F)cccc3s2)ccc1N	> 100 µM	> 100 µM	> 100 µM	
COc1cc(C2S/C(=C/c3ccccc3)C(=O)N2c2cccc(NC(C)=O)c2)cc(OC)c1OC (configuration not stated)		> 100 µM	48.9 µM	
O=CNc1ccccc1OCCOc1ccccc1NC=O	> 100 µM	> 100 µM	> 100 µM	
O=P(NCCCO)(OCc1ccccc1)N(CCCl)CCCl (configuration not stated)	> 100 µM			TGI [9]: > 31.6 µM; TGI [10]: > 100 µM; TGI [11]: > 100 µM; TGI [12]: > 100 µM; TGI [6]: > 100 µM; TGI [13]: > 100 µM; TGI [14]: > 100 µM; TGI [15]: > 100 µM; TGI [7]: > 100 µM; TGI [8]: > 100 µM
COc1ccccc1-c1c(C#N)c(N)[nH]c(=S)c1C#N	> 100 µM	> 100 µM	> 100 µM	
CC(Oc1ccc(Cl)cc1Cl)C(=O)NN1C(=O)CC(=O)N(c2ccccc2)C1=S (configuration not stated)	5.73 µM	> 100 µM	> 100 µM	
CC(C)CC(N)C(=O)NC(C(=O)NC(CCCNC(=N)N)C(=O)NC(CS)C(=O)NC1CSCC(C(=O)NC(Cc2ccccc2)C(=O)NC(C(=O)NC(CCCNC(=N)N)C(=O)O)C(C)C)NC(=O)C2CCCN2C(=O)C(CCCCN)NC(=O)C2CCCN2C(=O)C2CCCN2C(=O)C(Cc2ccc(O)cc2)NC(=O)C(CO)NC(=O)C(CCCCN)NC(=O)C(C(C)O)NC(=O)C(Cc2c[nH]c3ccccc23)NC1=O)C(C)C (configuration not stated)	> 25 µM	> 25 µM	> 25 µM	
COc1ccc(C2C3CCc4ccccc4C3=NN2S(=O)(=O)c2cccc(C(=O)O)c2OC)cc1 (configuration not stated)	> 100 µM	> 100 µM	> 100 µM	
Nc1nc(SCC(=O)c2ccc(Br)cc2)c2[nH]cnc2n1	63.1 µM	> 100 µM	> 100 µM	
COc1ccc(CCn2cncn2)cc1	> 100 µM	> 100 µM		TGI [9]: > 100 µM; TGI [4]: > 100 µM; TGI [10]: > 100 µM; TGI [12]: > 100 µM; TGI [5]: > 100 µM; TGI [6]: > 100 µM; TGI [16]: > 100 µM; TGI [7]: > 100 µM
COc1ccccc1N/C(SCc1ccccc1)=C(/C(Cl)=C(Cl)Cl)[N+](=O)[O-]		> 100 µM	> 100 µM	
COc1ccc2nc3cc(Cl)ccc3c(NCCCN3CCN(CCCNc4ccc5nnn6c7ccccc7c(=O)c4c56)CC3)c2c1	> 18.7 µM	> 25 µM	> 25 µM	
Cc1ccc(-c2cn3c(nc4ccccc43)c(/C=C/c3ccco3)n2)cc1	> 100 µM	> 100 µM		
CCCCOc1ccc(CC(NC(=O)OC(C)(C)C)C(=O)NC(C)C(=O)NC(Cc2ccccc2)C(=O)NCC(N)=O)cc1 (configuration not stated) (Boc-Y(nBu)AFG-NH2; configuration not given here)	> 100 µM	> 100 µM	> 100 µM	

SMILES	TGI [1]	TGI [2]	TGI [3]	also measured
COC(=O)c1c(O)ccc2c1c1cc3ccccc3c(O)c1n2CCc1ccc(OC)c(OC)c1	> 100 µM	> 100 µM	> 100 µM	
CN1CCC(C(O)(c2ccccc2)c2ccc(Br)cc2)CC1 (configuration not stated)	66.5 µM	28.7 µM	> 100 µM	
CCc1n[nH]c(=O)n1/N=C(\C)c1ccccc1	> 100 µM	> 100 µM	> 100 µM	
CN(CCc1ccccn1)c1ccc2c(c1)C(=O)c1ccccc1-2		> 100 µM	> 100 µM	
CC(=O)Nc1cccc(N2C(=O)/C(=C\c3cccc(Oc4ccccc4)c3)SC2c2ccccc2)c1 (configuration not stated)	> 100 µM	> 100 µM		
C=C1C(O)C2(O)OCC34C(CC5C(C)=CC(=O)C(O)C5(C)C23)OC(=O)C(OC(=O)C/C=C/CCCCCCCC)C14 (configuration not stated)	0.2 µM			TGI [9]: 0.0287 µM; TGI [4]: 0.0205 µM; TGI [10]: 0.0964 µM; TGI [11]: 1.1 µM; TGI [12]: 0.31 µM; TGI [6]: 0.0244 µM; TGI [14]: 0.278 µM; TGI [15]: 0.022 µM; TGI [7]: 0.057 µM; TGI [8]: 0.0351 µM
CCOc1nc2c(N3CCCC3)nc(N3CCNCC3)nc2nc1NCc1ccccc1	2.99 µM	2.98 µM	3.63 µM	
O=C(O)c1cc2ccccc2c(N=Nc2ccc(S(=O)(=O)Nc3ncccn3)cc2)c1O	> 100 µM	> 100 µM	> 100 µM	
O=C(Cc1nc2ccccc2[nH]c1=O)c1c[nH]c2ccccc12	> 100 µM	> 100 µM	31.3 µM	
CC(Oc1ccccc1Cl)C(=O)NN1C(=O)CC(=O)N(c2ccc(Cl)cc2)C1=S (configuration not stated)	8.68 µM	> 100 µM	> 100 µM	
COc1cccc(C23CCN(C)C(CC(O)C2)C3)c1OC (configuration not stated)	> 100 µM	> 100 µM	> 100 µM	
C/C(C=O)=C/[C@@]1(C)O[C@@H](C)[C@@](C)(O)[C@@H]1O	> 100 µM	> 100 µM	> 100 µM	
CN(C)c1ccc(-c2ccc(-c3ccc(C(=N)N)cn3)o2)cc1	3.73 µM	3.47 µM	2.93 µM	GI50 [1]: 1.76 µM; GI50 [2]: 1.85 µM; GI50 [3]: 1.5 µM
C#C[C@]1(O)CC[C@H]2[C@@H]3CCc4cc(O)ccc4[C@H]3CC[C@@]21C	94 µM			TGI [9]: 60.7 µM; TGI [4]: > 100 µM; TGI [11]: > 100 µM; TGI [12]: 38.9 µM; TGI [5]: > 100 µM; TGI [6]: 57.2 µM; TGI [7]: > 100 µM; TGI [8]: 98 µM
COc1ccc2nc3ccc(OC)cc3c(SCCCl)c2c1	> 21.1 µM	> 21.3 µM	> 100 µM	
Cc1c(-c2ccccc2)[nH]c2cn[nH]c(=O)c12	> 100 µM	> 100 µM	> 100 µM	
O=[N+]([O-])c1ccc(N=Nc2c(O)[nH]c3ccccc23)c([N+](=O)[O-])c1	> 100 µM	> 100 µM	> 100 µM	
Cc1ccc(-c2cc(-c3ccc(Cl)cc3)nc(/N=C3\C(=O)N(CN(C)C)c4ccccc43)n2)cc1	26.2 µM	> 100 µM	> 100 µM	
O=C1c2c(Br)sc(Br)c2[C@@H](O)[C@H]1O	28.6 µM	26.5 µM	33.1 µM	
